Results as given in ChEMBL document CHEMBL3045323, “Synthesis, anti-inflammatory and anticancer activity evaluation of some mono- and bis-Schiffs bases” (2012).
Starred links: 1 amine or outer side, 2 acyl side, 3 side chain; linkers in the order of their positions; H or OH if unused. Positions of bridges follow the written chain, without caps; N, C: chain ends. Non-standard residues stand in square brackets, D forms with d. Residues, ends and D or L forms follow the SMILES beside them. Chains are numbered I, II in the order given. Actinocin(1to9) = Cc1c2oc3c(C)ccc(C(=O)[*:2])c3nc-2c(C(=O)[*:1])c(N)c1=O; NMeV = CN[C@H](C(=O)O)C(C)C; Sar = CNCC(=O)O

Legend:
Assay type in all cases: functional
T47D = experiment: Cytotoxicity against Homo sapiens (human) T47D cells assessed as growth inhibition at 1 x 10^-5 M after 48 hr by SRB assay; settings: read-out: GI
HCT-15 = experiment: Cytotoxicity against Homo sapiens (human) HCT15 cells assessed as growth inhibition at 1 x 10^-5 M after 48 hr by SRB assay; settings: HCT-15, 48 h, read-out: GI
NCI-H522 = experiment: Cytotoxicity against Homo sapiens (human) NCI-H522 cells assessed as growth inhibition at 1 x 10^-5 M after 48 hr by SRB assay; settings: NCI-H522, 48 h, read-out: GI
HepG2 = experiment: Cytotoxicity against Homo sapiens (human) HepG2 cells assessed as growth inhibition at 1 x 10^-5 M after 48 hr by SRB assay; settings: HepG2, 48 h, read-out: GI
PA-1 = experiment: Cytotoxicity against Homo sapiens (human) PA1 cells assessed as growth inhibition at 1 x 10^-5 M after 48 hr by SRB assay; settings: PA-1, 48 h, read-out: GI
Rattus norvegicus = experiment: Anti-inflammatory activity inRattus norvegicus albino (rat) assessed as inhibition of carrageenan-induced paw edema at 50 mg/kg, po administered for 30 min followed by carrageenan challenge measured after 1 to 3 hr relative to control

Row | Compound | inhibition of growth at 10 µM (T47D) | inhibition of growth at 10 µM (HCT-15) | inhibition of growth at 10 µM (NCI-H522) | inhibition of growth at 10 µM (HepG2) | inhibition of growth at 10 µM (PA-1) | inhibition in vivo at 50 mg/kg (Rattus norvegicus)
1 | COc1cc(/C=N/CC2CCCO2)ccc1O (stereo unspecified) | 25% | 24% | 17% | 1% | 13% | 14%
2 | COc1cc(/C=N/CCCn2ccnc2)ccc1O | 15% | 1% | 22% | 11% | 16% | 0%
3 | COc1cc(/C=N/CCN2CCNCC2)ccc1O | 25% | 4% | 25% | 30% | 39% | 18%
4 | COc1ccc(OC)c(/C=N/CC2CCCO2)c1 (stereo unspecified) | 33% | 0% | 15% | 25% | 38% | 16%
5 | COc1ccc(OC)c(/C=N/CCCn2ccnc2)c1 | 29% | 3% | 24% | 24% | 25% | 0%
6 | COc1ccc(OC)c(/C=N/CCN2CCNCC2)c1 | 28% | 4% | 49% | 22% | 16% | 21%
7 | C(=N\CC1CCCO1)/c1ccco1 (stereo unspecified) | 12% | 4% | 15% | 20% | 16% | 26%
8 | C(=N\CCCn1ccnc1)/c1ccco1 | 16% | 1% | 29% | 1% | 13% | 28%
9 | C(=N\CCN1CCNCC1)/c1ccco1 | 21% | 5% | 19% | 18% | 35% | 22%
10 | COc1cc(/C=N/c2n[nH]c(/N=C/c3ccc(O)c(OC)c3)n2)ccc1O | 38% | 4% | 9% | 14% | 40% | 26%
11 | COc1cc(/C=N/CCCN2CCN(CCC/N=C/c3ccc(O)c(OC)c3)CC2)ccc1O | 18% | 5% | 1% | 3% | 51% | 25%
12 | COc1ccc(OC)c(/C=N/c2n[nH]c(/N=C/c3cc(OC)ccc3OC)n2)c1 | 41% | 5% | 15% | 10% | 53% | 22%
13 | COc1ccc(OC)c(/C=N/CCCN2CCN(CCC/N=C/c3cc(OC)ccc3OC)CC2)c1 | 24% | 7% | 13% | 8% | 62% | 20%
14 | C(=N\c1n[nH]c(/N=C/c2ccco2)n1)/c1ccco1 | 30% | 3% | 26% | 25% | 48% | 11%
15 | C(=N\CCCN1CCN(CCC/N=C/c2ccco2)CC1)/c1ccco1 | 9% | 6% | 5% | 10% | 43% | 30%
16 | C[C@@H]1C[C@@H]([C@H](O)CC2CC(=O)NC(=O)C2)C(=O)[C@@H](C)C1 [CYCLOHEXIMIDE] | 30% | 5% | 20% | 14% | 82% | –
17 | O=P1(N(CCCl)CCCl)NCCCO1 (stereo unspecified) [CYCLOPHOSPHAMIDE ANHYDROUS] | 36% | 7% | 7% | 24% | 21% | –
18 | Cc1c2oc3c(C)ccc(C(=O)N[C@@H]4C(=O)N[C@H](C(C)C)C(=O)N5CCC[C@H]5C(=O)N(C)CC(=O)N(C)[C@@H](C(C)C)C(=O)O[C@@H]4C)c3nc-2c(C(=O)N[C@@H]2C(=O)N[C@H](C(C)C)C(=O)N3CCC[C@H]3C(=O)N(C)CC(=O)N(C)[C@@H](C(C)C)C(=O)O[C@@H]2C)c(N)c1=O [DACTINOMYCIN] (I: T[dV]P[Sar][NMeV] / II: T[dV]P[Sar][NMeV]; ester I:1-I:C, II:1-II:C; linker I:N-II:N via Actinocin(1to9)) | 21% | 49% | 59% | 42% | 93% | –
19 | O=c1[nH]cc(F)c(=O)[nH]1 [FLUOROURACIL] | 22% | 21% | 51% | 33% | 27% | –
20 | CC(C)Cc1ccc(C(C)C(=O)O)cc1 (stereo unspecified) [IBUPROFEN] | – | – | – | – | – | 39%
